# Laboratory results: patent US7282602B2, “Medicinal disulfide salts” (BioNumerik Pharmaceuticals, Inc., priority 2004, dated 2007)
# Test: toxicity in vivo (lethality)
# Procedure: The formula I compounds may be administered in any convenient dosage form, with the preferred formulations adapted for oral (PO) or intravenous (IV) administration. Since the water solubility of the compounds exceeds 200 mg/mL, formulations are not anticipated to be difficult to make.
compound,measurement,setting,value
"O=S(=O)([O-])CCSSCCS(=O)(=O)[O-].[Na+].[Na+] [Dimesna, Disodium 2,2′-dithiobis ethane sulfonate]",toxicity compared with common table salt,,less toxic than common table salt
same,amount not causing a single death in vivo,IV,exceeding 5000 mg/kg
